Reference: ChEMBL document CHEMBL1154397, “Synthesis and SAR of 4-substituted-2-aminopyrimidines as novel c-Jun N-terminal kinase (JNK) inhibitors” (Bioorg Med Chem Lett, 2009)

Assays:
[1] = molecular target: Mitogen-activated protein kinase 8 (Homo sapiens, UniProt P45983); assay: Inhibition of JNK1
[2] = tested on: Liver microsomes; assay: Metabolic stability in human liver microsomes assessed as clearance; type: ADME, Microsome
[3] = molecular target: c-Jun N-terminal kinase, JNK (Homo sapiens, UniProt P45983+P53779+P45984); assay: Inhibition of TNF-alpha-induced phosphorylation of […] in human HepG2 cells; type: cell-based
[4] = Metabolic stability in rat liver microsomes assessed as clearance; type: ADME, Microsome
[5] = molecular target: Cyclin-dependent kinase 2 (Homo sapiens, UniProt P24941); assay: Inhibition of CDK2/cyclinA
[6] = molecular target: Glycogen synthase kinase-3 beta (Homo sapiens, UniProt P49841); assay: Inhibition of GSK3-beta
[7] = molecular target: Insulin receptor (Homo sapiens, UniProt P06213); assay: Inhibition of IR
[8] = molecular target: Mitogen-activated protein kinase 14 (Homo sapiens, UniProt Q16539); assay: Inhibition of SAPK2a
[9] = molecular target: Mitogen-activated protein kinase 10 (Homo sapiens, UniProt P53779); assay: Inhibition of JNK3
[10] = molecular target: Mitogen-activated protein kinase 13 (Homo sapiens, UniProt O15264); assay: Inhibition of SPAK4
[11] = molecular target: MAP kinase-activated protein kinase 2 (Homo sapiens, UniProt P49137); assay: Inhibition of MAPKAP-K2
[12] = molecular target: Dual specificity mitogen-activated protein kinase kinase 4 (Homo sapiens, UniProt P45985); assay: Inhibition of MKK4
[13] = molecular target: Ribosomal protein S6 kinase beta-1 (Homo sapiens, UniProt P23443); assay: Inhibition of P70s6K
[14] = molecular target: 5'-AMP-activated protein kinase catalytic subunit alpha-2 (Homo sapiens, UniProt P54646); assay: Inhibition of AMPK
[15] = molecular target: Protein kinase C theta type (Homo sapiens, UniProt Q04759); assay: Inhibition of PKCtheta
[16] = molecular target: Dual specificity mitogen-activated protein kinase kinase 6 (Homo sapiens, UniProt P52564); assay: Inhibition of MKK6
[17] = molecular target: Mitogen-activated protein kinase 11 (Homo sapiens) (UniProt Q15759); assay: Inhibition of SAPK2b
[18] = molecular target: Dual specificity mitogen-activated protein kinase kinase 1 (Homo sapiens, UniProt Q02750); assay: Inhibition of MEK1
[19] = molecular target: Mitogen-activated protein kinase 9 (Homo sapiens, UniProt P45984); assay: Inhibition of to JNK2
[20] = molecular target: Dual specificity mitogen-activated protein kinase kinase 7 (Homo sapiens, UniProt O14733); assay: Inhibition of MKK7beta
[21] = molecular target: Inhibitor of nuclear factor kappa-B kinase subunit beta (Homo sapiens, UniProt O14920); assay: Inhibition of IKKb
[22] = molecular target: Mitogen-activated protein kinase 12 (Homo sapiens, UniProt P53778); assay: Inhibition of SAPK3
[23] = molecular target: Voltage-gated inwardly rectifying potassium channel KCNH2 (Homo sapiens, UniProt Q12809); assay: Binding affinity to human ERG
[24] = Lipophilicity, log D of the compound; type: physicochemical; conditions: octanol/water
[25] = Permeability from basolateral to apical side of human Caco-2 cells; type: ADME, cell-based; conditions: read-out: permeability
[26] = Permeability from apical to basolateral side of human Caco-2 cells; type: ADME, cell-based; conditions: read-out: permeability
[27] = Selectivity ratio of IC50 for p38MAPKgamma to IC50 for JNK1
[28] = Selectivity ratio of IC50 for p38MAPKbeta to IC50 for JNK1

Sequence of Mitogen-activated protein kinase 8 (P45983 whole entry): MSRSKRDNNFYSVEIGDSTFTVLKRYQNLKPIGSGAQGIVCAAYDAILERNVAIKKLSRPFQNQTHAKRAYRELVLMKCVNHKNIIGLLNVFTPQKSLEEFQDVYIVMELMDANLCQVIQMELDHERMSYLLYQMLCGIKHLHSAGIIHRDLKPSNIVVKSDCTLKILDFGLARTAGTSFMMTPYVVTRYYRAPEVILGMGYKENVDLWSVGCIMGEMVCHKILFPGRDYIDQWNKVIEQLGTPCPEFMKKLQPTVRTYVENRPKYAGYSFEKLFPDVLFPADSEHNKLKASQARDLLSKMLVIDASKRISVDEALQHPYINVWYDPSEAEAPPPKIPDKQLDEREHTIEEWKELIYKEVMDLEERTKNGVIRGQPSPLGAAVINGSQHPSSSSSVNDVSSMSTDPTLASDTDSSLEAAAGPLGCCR
Sequence of Insulin receptor (P06213 28-758 limits assumed): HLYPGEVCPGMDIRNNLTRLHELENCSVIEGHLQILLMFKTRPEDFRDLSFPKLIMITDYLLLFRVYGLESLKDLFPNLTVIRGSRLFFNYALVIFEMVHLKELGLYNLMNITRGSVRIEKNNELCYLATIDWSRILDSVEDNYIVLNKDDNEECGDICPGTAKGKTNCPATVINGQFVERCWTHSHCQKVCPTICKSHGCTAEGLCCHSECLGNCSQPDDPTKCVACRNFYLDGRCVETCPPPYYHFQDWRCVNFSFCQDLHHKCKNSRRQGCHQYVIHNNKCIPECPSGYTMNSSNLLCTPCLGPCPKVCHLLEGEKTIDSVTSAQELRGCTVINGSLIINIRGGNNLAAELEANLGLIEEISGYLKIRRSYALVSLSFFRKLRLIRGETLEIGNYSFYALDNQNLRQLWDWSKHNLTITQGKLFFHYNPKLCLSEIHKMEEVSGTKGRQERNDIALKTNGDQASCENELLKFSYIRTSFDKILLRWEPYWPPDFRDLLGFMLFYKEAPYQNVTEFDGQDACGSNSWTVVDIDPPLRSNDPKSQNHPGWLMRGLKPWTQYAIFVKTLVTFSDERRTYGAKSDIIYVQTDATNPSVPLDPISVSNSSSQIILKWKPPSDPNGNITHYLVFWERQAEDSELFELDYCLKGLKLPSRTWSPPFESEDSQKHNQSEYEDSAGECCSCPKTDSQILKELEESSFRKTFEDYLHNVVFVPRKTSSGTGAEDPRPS
Sequence of Insulin receptor (P06213 763-1382 limits assumed): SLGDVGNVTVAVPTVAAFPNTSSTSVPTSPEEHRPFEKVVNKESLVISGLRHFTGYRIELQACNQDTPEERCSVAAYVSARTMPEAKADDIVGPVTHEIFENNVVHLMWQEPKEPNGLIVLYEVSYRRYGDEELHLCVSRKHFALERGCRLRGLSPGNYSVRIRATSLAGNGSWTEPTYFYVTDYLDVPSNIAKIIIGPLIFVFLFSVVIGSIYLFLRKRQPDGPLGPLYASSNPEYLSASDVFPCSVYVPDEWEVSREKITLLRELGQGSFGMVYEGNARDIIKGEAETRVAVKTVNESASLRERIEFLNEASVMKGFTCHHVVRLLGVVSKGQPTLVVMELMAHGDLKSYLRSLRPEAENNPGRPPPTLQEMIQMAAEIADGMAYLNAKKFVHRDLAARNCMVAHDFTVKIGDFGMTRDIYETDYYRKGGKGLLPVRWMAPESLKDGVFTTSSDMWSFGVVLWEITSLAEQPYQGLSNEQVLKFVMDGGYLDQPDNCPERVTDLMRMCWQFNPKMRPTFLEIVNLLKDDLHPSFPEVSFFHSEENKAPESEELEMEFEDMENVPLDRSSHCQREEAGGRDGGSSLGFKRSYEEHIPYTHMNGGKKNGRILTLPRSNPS
Sequence of Dual specificity mitogen-activated protein kinase kinase 6 (P52564 whole entry): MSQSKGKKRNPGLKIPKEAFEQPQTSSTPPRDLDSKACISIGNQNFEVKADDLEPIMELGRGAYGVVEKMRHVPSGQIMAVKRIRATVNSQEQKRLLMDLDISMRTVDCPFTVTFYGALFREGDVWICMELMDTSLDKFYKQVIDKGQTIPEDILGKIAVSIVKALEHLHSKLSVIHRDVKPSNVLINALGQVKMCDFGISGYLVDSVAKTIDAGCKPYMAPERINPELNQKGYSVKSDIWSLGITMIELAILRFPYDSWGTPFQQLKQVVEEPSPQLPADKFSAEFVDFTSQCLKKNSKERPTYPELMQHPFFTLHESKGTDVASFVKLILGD
Sequence of Protein kinase C theta type (Q04759 whole entry): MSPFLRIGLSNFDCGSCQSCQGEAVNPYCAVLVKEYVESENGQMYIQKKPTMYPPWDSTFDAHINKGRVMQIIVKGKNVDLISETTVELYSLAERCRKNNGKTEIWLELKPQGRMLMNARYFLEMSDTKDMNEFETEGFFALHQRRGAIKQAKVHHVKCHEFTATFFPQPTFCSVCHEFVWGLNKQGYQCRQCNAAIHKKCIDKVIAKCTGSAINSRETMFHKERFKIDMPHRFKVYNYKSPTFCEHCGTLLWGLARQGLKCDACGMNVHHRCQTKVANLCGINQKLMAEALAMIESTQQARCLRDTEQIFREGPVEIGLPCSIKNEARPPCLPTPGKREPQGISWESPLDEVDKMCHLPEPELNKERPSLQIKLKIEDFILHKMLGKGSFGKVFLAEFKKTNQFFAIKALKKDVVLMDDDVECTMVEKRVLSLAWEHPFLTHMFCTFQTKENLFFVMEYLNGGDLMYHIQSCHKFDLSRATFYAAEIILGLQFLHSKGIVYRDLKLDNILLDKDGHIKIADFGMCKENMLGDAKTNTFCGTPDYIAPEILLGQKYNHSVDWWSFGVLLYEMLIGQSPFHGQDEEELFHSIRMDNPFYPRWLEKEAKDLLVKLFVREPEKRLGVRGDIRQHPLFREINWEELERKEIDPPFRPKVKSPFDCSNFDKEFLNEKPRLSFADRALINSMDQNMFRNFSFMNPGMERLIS
Sequence of Mitogen-activated protein kinase 14 (Q16539 whole entry): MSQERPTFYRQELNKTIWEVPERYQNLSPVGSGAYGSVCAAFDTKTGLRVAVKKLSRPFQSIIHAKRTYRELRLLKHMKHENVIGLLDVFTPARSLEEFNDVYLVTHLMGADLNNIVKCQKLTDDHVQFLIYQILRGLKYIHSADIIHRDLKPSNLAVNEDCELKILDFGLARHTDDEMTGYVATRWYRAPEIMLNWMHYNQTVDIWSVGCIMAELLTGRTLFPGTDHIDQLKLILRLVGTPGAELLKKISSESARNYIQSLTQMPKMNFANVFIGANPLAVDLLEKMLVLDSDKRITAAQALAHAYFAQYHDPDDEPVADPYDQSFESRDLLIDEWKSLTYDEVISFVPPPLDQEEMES
Sequence of Mitogen-activated protein kinase 11 (Homo sapiens) (Q15759 whole entry, looked up): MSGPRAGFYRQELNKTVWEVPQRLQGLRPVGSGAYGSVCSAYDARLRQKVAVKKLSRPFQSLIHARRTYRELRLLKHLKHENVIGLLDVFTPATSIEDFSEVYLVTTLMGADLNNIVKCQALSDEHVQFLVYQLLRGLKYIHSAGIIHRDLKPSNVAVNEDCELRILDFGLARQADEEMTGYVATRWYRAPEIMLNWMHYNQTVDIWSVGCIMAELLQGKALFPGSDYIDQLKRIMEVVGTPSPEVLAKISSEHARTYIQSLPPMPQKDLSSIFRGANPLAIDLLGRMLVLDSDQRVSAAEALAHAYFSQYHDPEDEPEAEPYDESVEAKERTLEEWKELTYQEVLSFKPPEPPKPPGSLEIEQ
Sequence of Voltage-gated inwardly rectifying potassium channel KCNH2 (Q12809 whole entry): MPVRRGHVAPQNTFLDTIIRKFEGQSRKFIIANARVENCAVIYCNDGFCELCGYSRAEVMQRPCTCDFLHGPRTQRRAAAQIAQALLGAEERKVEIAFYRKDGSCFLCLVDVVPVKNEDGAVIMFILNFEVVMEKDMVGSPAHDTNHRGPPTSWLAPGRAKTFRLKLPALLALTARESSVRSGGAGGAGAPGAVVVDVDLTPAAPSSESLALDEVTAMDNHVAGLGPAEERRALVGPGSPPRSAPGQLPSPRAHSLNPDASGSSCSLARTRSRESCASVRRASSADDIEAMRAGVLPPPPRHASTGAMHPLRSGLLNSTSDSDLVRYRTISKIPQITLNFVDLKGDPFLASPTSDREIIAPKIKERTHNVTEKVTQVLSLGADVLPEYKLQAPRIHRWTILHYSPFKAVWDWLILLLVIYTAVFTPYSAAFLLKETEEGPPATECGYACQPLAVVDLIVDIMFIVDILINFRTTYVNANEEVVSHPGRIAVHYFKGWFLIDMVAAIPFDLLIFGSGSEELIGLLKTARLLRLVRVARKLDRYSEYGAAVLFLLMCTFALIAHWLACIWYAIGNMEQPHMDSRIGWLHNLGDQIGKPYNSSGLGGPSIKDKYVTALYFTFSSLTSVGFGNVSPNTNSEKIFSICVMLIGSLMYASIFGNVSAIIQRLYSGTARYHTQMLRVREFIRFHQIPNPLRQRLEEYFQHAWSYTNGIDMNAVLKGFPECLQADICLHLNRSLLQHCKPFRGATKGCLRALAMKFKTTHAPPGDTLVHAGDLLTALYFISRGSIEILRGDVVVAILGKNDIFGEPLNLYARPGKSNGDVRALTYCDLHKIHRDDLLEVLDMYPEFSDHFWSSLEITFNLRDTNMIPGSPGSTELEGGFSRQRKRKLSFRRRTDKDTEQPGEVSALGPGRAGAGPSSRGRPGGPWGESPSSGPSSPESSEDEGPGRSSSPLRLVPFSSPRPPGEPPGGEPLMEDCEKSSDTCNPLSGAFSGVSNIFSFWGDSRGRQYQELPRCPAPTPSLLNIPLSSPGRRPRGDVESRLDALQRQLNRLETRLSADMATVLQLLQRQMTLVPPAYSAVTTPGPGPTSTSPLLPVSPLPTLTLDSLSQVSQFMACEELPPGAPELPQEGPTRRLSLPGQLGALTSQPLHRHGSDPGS

Structure (SMILES)	Ki [1]	microsomal CLint [2]	IC50 [3]	further results
Cc1ccc(-c2n[nH]cc2-c2ccnc(NC3CCN(C)CC3)n2)cn1	162 nM	61 µL/min/mg	6020 nM	–
CC(C)Nc1nccc(-c2cn[nH]c2C2CCN(S(C)(=O)=O)CC2)n1	101 nM	12 µL/min/mg	221 nM	microsomal CLint [4]: 52 µL/min/mg
CC(C)Nc1nccc(-c2c[nH]nc2-c2ccc(Cl)cc2)n1	48 nM	106 µL/min/mg	920 nM	–
CN1CCC(Nc2nccc(-c3c[nH]nc3-c3ccc(Cl)cc3)n2)CC1	1570 nM	14 µL/min/mg	–	Ki [23]: 1020 nM
Clc1ccc(-c2n[nH]cc2-c2ccnc(NC3CCCCC3)n2)cc1	27 nM	156 µL/min/mg	1100 nM	–
CC(C)Nc1nccc(-c2cn[nH]c2)n1	2730 nM	21 µL/min/mg	–	–
Clc1ccc(-c2n[nH]cc2-c2ccnc(NC3CC3)n2)cc1	151 nM	96 µL/min/mg	840 nM	–
Clc1ccc(-c2n[nH]cc2-c2ccnc(NC3CCCC3)n2)cc1	26 nM	116 µL/min/mg	460 nM	logD [24]: 4.42
C[C@H](CC(=O)O)Nc1nccc(-c2c[nH]nc2-c2ccc(Cl)cc2)n1	315 nM	< 6 µL/min/mg	–	Papp B→A [25]: 13.2 ×10⁻⁶ cm/s; Papp A→B [26]: 0.3 ×10⁻⁶ cm/s
CC(C)Nc1nccc(-c2c[nH]nc2C2CCOCC2)n1	169 nM	18 µL/min/mg	814 nM	–
Cc1ccnc(S)n1	2060 nM	–	–	–

Second part, led by results:

Ki [1]	microsomal CLint [2]	IC50 [3]	Structure (SMILES)	further results
12 nM	< 15 µL/min/mg	–	O[C@H]1CC[C@H](c2[nH]ncc2-c2ccnc(NC3CCCC3)n2)CC1	IC50 [5]: 590 nM; IC50 [6]: 1900 nM; IC50 [7]: > 30 µM; IC50 [8]: > 30 µM; Ki [9]: 16 nM; IC50 [10]: 1200 nM; IC50 [11]: > 30 µM; IC50 [12]: 920 nM; IC50 [13]: > 30 µM; IC50 [14]: > 30 µM; IC50 [15]: > 30 µM; IC50 [16]: 15 µM; IC50 [17]: 15 µM; IC50 [18]: > 30 µM; Ki [19]: 17 nM; IC50 [20]: 860 nM; IC50 [21]: 13 µM; IC50 [22]: 6.2 µM
9 nM	11 µL/min/mg	114 nM	CS(=O)(=O)N[C@H]1CC[C@H](c2n[nH]cc2-c2ccnc(NC3CCCC3)n2)CC1	–
36 nM	15 µL/min/mg	209 nM	OC1CCCC(c2n[nH]cc2-c2ccnc(NC3CCCC3)n2)C1 (configuration not stated)	–
43 nM	34 µL/min/mg	357 nM	CC(C)Nc1nccc(-c2c[nH]nc2C2CCCOC2)n1 (configuration not stated)	microsomal CLint [4]: 18 µL/min/mg
12 nM	89 µL/min/mg	245 nM	c1cc(-c2cn[nH]c2C2CCCOC2)nc(NC2CCCC2)n1 (configuration not stated)	–
28 nM	< 8 µL/min/mg	299 nM	CC(=O)N[C@H]1CC[C@H](c2n[nH]cc2-c2ccnc(NC3CCCC3)n2)CC1	–
381 nM	21 µL/min/mg	3500 nM	CC(C)Nc1nccc(-c2cn[nH]c2C2CCCCO2)n1 (configuration not stated)	–
–	–	98 nM	O[C@H]1CC[C@H](c2n[nH]cc2-c2ccnc(NC3CCCC3)n2)CC1	Activity [27]: 100; Activity [28]: 100
530 nM	14 µL/min/mg	–	CC(C)Nc1nccc(-c2cn[nH]c2C2CCCNC2)n1 (configuration not stated)	–
